Results on 2 molecules are retold here after patent US6890923B2, “Compounds” (AstraZeneca AB, priority 2002, dated 2005).

What is called melting point is the temperature, or range, at which the solid turns liquid. Turning to `CC(C)Cn1c(=O)n(C)c(=O)c2c(-c3ccsc3)c(Cc3ccccc3C(F)(F)F)sc21` [Example 6, 3-Methyl-1-(2-methylpropyl)-5-(3-thienyl)-6-[[2-(trifluoromethyl)phenyl]methyl]-thieno[2,3-d]pyrimidine-2,4(1H,3H)-dione], the melting point lay within 113 to 114 °C.

Turning to `CC(C)Cn1c(=O)n(C)c(=O)c2c(CCC(=O)O)c(Cc3ccccc3C(F)(F)F)sc21` [Example 28, 1,2,3,4-Tetrahydro-3-methyl-1-(2-methylpropyl)-2,4-dioxo-6-[[2-(trifluoromethyl)phenyl]methyl]-thieno[2,3-d]pyrimidine-5-propanoic acid], the melting point lay in the range of 165 to 167 °C.
